Laboratory results published in PMC12032302, “A20 attenuates oxidized self-DNA-mediated inflammation in acute kidney injury” (Signal Transduction and Targeted Therapy, 2025).
Entries after “also recorded” stand apart in the source; their conditions may differ. Residues, ends and D or L forms follow the SMILES beside them.

Assays:
[1] = tested on: HA-NEK7 K140A; assay: biotin-P-II immunoprecipitation of HA-NEK7 K140A; format: binding, mouse; conditions: co-IP with biotin-labeled P-II, HEK293T lysates, overnight 4 °C, immunoblot; Fig. 7c
Experimental: (§1) For biotin mediated immunoprecipitation, plasmids of HA-NEK7 (WT, K130A, L132R, K140A and Tri-MUT) were transfected into HEK293T cells for 2 days. Then, cells were lysed in MLB with inhibitor cocktail for 10 min at 4 °C. Cell lysates were collected and centrifuged at 12,000 rpm for 15 min at 4 °C and the supernatant was incubated with biotin conjunction peptide overnight at 4 °C. On the next day, streptavidin magnetic beads(Invitrogen, Lot#91221939) were added and incubated for 1 h. The immunocoprecipitated protein was then subjected to washing, heating, and western blot analysis.
(§2) Mouse HA-NEK7, FlAG-A20, and NLRP3 cDNA were amplified by employing standard PCR techniques from a mouse cDNA library. Subsequently, diverse cDNAs were inserted into mammalian expression vectors pcDNA3.1(+), pRK5, or pCMV6 with 3×Flag or 3×HA tags. For transient transfections, Lipofectamine 3000 was utilized according to the manufacturer’s instructions.

[2] = tested on: HA-NEK7 Tri-MUT (K130, L132 and K140); assay: biotin-P-II immunoprecipitation of HA-NEK7 Tri-MUT; format: binding, mouse; conditions: co-IP with biotin-labeled P-II, HEK293T lysates, overnight 4 °C, immunoblot; Fig. 7c
Experimental: as §1, §2

[3] = tested on: BMDMs; assay: ox-dsDNA-induced pyroptosis in BMDMs (GSDMD cleavage, IL-1β, IL-18, LDH release); format: cell-based, mouse; conditions: ox-dsDNA90, 12 h pretreated P-II (0, 5, 10, 20 μM), n = 3, Supplementary Fig. 4f-i
Experimental: Primary bone marrow-derived macrophages (BMDMs) were isolated from 6- to 8-week-old C57BL/6J male mice. The mice were sacrificed and soaked in 75% alcohol for 1–2 min. The femurs and tibias were removed and immersed in PBS containing 500 U/mL penicillin and […] streptomycin for 3 min. The marrow cavities were repeatedly rinsed with DMEM using a sterile 1 mL syringe. The cell suspension was collected and centrifuged at 300 × g for 10 min, and the supernatant was discarded. The cell pellet was resuspended in 5 mL red cell lysis buffer (Bio Sharp, Cat#BL503A) on ice for 5 min, followed by centrifugation, and the supernatant was removed. The cells were then resuspended in DMEM complete culture medium supplemented with 10% FBS and 30% L929 cell-conditioned medium as an induction factor.[51] Half of the medium was changed every other day for 5–7 days. The suspended cells were removed, and the adherent BMDMs were digested with trypsin and plated on a six-well plate at a density of 1 × 10^6 cells/well. […]
To measure the levels of CXCL10, IFN-β, IL-1β, and IL-18, mouse serum or cell culture medium was collected and measured by ELISA (NeoBioscience, China) according to the manufacturer’s instructions.
To measure the release of LDH, cell culture medium was collected and measured by CytoTox96@Non-Radio cytotoxicity Assay (Promega, REF#G1781) according to the manufacturer’s instructions.

[4] = tested on: AKI mice; assay: overall therapeutic effect in AKI mice; format: in vivo, mouse; conditions: A20-derived peptide (P-II), abstract
Experimental: (§3) Aristolochic acid I sodium salt was dissolved in PBS to 1 mg/mL and injected intraperitoneally at a dose of 10 mg/kg (body weight) every 24 h for 3 days; cisplatin was dissolved in PBS to 1.5 mg/mL for one-time intraperitoneal 25 mg/kg injection; LPS (Sigma, Cat#L2630) was dissolved in PBS to 2.5 mg/mL for one-time intraperitoneal 25 mg/kg injection; deoxyribonuclease I (DNase I, Sigma, Cat#SLBV1446) was dissolved in PBS to 1 mg/mL and injected intraperitoneally at a dose of 10 mg/kg at 4 h before cisplatin or AA I injection and every 24 h after injection. Disulfiram (MedChemExpress, CAS:97-77-8) was diluted in corn oil to 12.5 mg/mL and injected 50 mg/kg intraperitoneally every 24 h after cisplatin or AA I administration. Cu(II) (Sigma, Cat#344419) was dissolved in PBS to 30 µg/mL and administered intraperitoneally 6 h before disulfiram at a dose of 0.15 mg/kg; TNF-α (Peprotech, Cat#315-01 A) was dissolved in PBS to 10 µg/mL and injected at 100 µg/kg once through the caudal vein 24 h before cisplatin injection. Metformin (Sigma, Cat#D150959) was dissolved in PBS to 5 mg/mL and injected intraperitoneally at a dose of 50 mg/kg 24 h before cisplatin or AA I injection and every 24 h after injection. MCC950 (MedChem Express, CAS:256373-96-3) was dissolved in PBS to 5 mg/mL and injected intraperitoneally at a dose of 50 mg/kg 12 h before cisplatin or AA I injection and every 12 h after injection; berberine (APExBIO, Cat#N1368) was dissolved in PBS to 5 mg/mL and 5 mg/kg injected intraperitoneally at 36, 24 and 12 h before cisplatin; A20-derived-peptide was dissolved in ddH2O to 3 mg/mL and injected intraperitoneally at a dose of 15 mg/kg 1 h before cisplatin. To supervise the effects of various treatments on survival time and rate, the mice were observed, and survival curves were generated. To investigate the specific mechanisms, whole blood was retrieved from the orbit, serum was separated through centrifugation on the 4th day, and the mice were then sacrificed by cervical dislocation. Mice were randomly assigned in experiments, while there was no blinding during the animal experiments.

[5] = tested on: AKI mice; assay: survival of AKI mice; format: in vivo, mouse; conditions: Cis-treated mice; A20-derived peptide 15 mg/kg i.p., pretreated; n = 10 per group
Experimental: as §3

With CSCC[C@H](NC(=O)[C@H](Cc1ccc(O)cc1)NC(=O)[C@H](CCC(N)=O)NC(=O)[C@H](CS)NC(=O)[C@H](C)NC(=O)[C@H](C)NC(=O)[C@H](Cc1c[nH]cn1)NC(=O)[C@H](CCSC)NC(=O)[C@H](CC(C)C)NC(=O)[C@H](CS)NC(=O)[C@H](CC(N)=O)NC(=O)CNC(=O)[C@H](CC(=O)O)NC(=O)CNC(=O)[C@H](CC(N)=O)NC(=O)[C@@H](NC(=O)[C@H](CCCCN)NC(=O)[C@H](CC(C)C)NC(=O)[C@H](C)NC(=O)[C@@H](NC(=O)[C@H](CC(C)C)NC(=O)[C@@H](N)CCCCN)C(C)C)[C@@H](C)O)C(=O)N[C@@H](Cc1c[nH]c2ccccc12)C(=O)NCC(=O)N[C@H](C(=O)N[C@@H](CCC(N)=O)C(=O)N[C@@H](CC(=O)O)C(=O)N[C@H](C(=O)N[C@@H](CC(=O)O)C(=O)O)[C@@H](C)O)C(C)C [P-II] (H-KLVALKTNGDGNCLMHAACQYMWGVQDTD-OH; N-terminus and C-terminus assumed) the “binding of NEK7 and P-II, effect of K140A mutation” value [1] was “significantly attenuate the binding of NEK7 and P-II; also recorded: Lys140 of NEK7 is crucial for this binding”, the “binding of NEK7 and P-II, effect of simultaneous mutation of three residues” value [2] was “significantly attenuate the binding of NEK7 and P-II” and the “inhibition of ox-DNA-induced pyroptosis” value [3] was “significantly alleviates ox-dsDNA-induced pyroptosis; also recorded: inhibiting ox-self-DNA-induced pyroptosis”. The “survival and renal injury of AKI mice” value [4] was “improves the survival and renal injury of AKI mice” and the survival [5] was “improved the survival of mice”.
